Entries after “also recorded” stand apart in the source; their conditions may differ.
Columns and labels:
[1] = molecular target: T1, BMP-4 (Homo sapiens, UniProt P12644); assay: ATDC5 bioassay with rhBMP-4 stimulation instead of rhBMP-2 (ALP); assay type: cell-based, mouse; conditions: ATDC5 cells; for effect on ALP production induced by BMP-4 compared with BMP-2: 2.5 μM and 5 μM; for inhibition at 2.5 µM: read-out: inhibition of BMP-4 (ALP induction)
T1 sequence (P12644 293-408): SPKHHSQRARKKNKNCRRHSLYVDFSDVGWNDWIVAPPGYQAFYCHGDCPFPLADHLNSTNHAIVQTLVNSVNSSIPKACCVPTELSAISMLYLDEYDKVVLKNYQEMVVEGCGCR
Protocol: Poly-L-lysine (Sigma-Aldrich) was added to 384-well plates and was removed after 30 min of incubation at RT. An assay medium containing DMEM/F12, 2% FBS, 100 units/ml penicillin, […] streptomycin (Biological industries) was added to each well. […] ATDC5 cells (Sigma-Aldrich) were harvested, re-suspended in assay medium and added to a final concentration of 2000 cells/well. Finally, heparin (Sigma-Aldrich) was added to a final concentration of 2 μg/ml. The cells were incubated for 48 hours at 37° C. with 5% CO2 in a humidified chamber in the presence or absence of potential small molecule inhibitors of BPM-2. After incubation, ALP levels and cell viability were determined using a completely automated protocol. Cells were washed with PBS, lysed using a lysis buffer containing 0.2% Triton X-100 in PBS supplemented with a protease inhibitor cocktail (Sigma-Aldrich) and incubated for 25 min at RT. ALP level was then determined by addition of CDP-Star® chemiluminescent substrate (Sigma-Aldrich) and measurement of luminescence after incubation for 25 min at RT in the dark. Cell viability was finally determined by addition of CellTiter-Glo® reagent (Biological Industries) and luminescence measurement after 10 min of incubation.
Due to the high homology between BMP-2 and BMP-4, the ability of the SMs to inhibit BMP-2 and BMP-4 signaling (similar to the effect of the anti-BMP-2/4 mAb) was also examined.

[2] = system: P19 cells; assay: In vitro differentiation assay of P19 cells (MAP-2 positive neurons); assay type: cell-based, murine; conditions: for MAP-2+ cells: day 8; for effect on neuronal phenotype (number of MAP-2+ cells) vs. RA+BMP-2: RA + rhBMP-2 + SM at 0.625, 1.25 and 2.5 μM
Protocol: P19 cells were grown in a-minimum essential medium (aMEM) (Gibco) containing 7.5% calf serum, 2.5% fetal calf serum, and 0.4 μl/ml penicillin—streptomycin (Gibco), at 37° C., 5% CO2. Cells were replenished with fresh medium every 48 h.
The medium, including RA, BMP supplements and SMs, was replenished after 48 h. After 4 days, aggregates which formed during RA treatment were dispersed enzymatically (0.05% v/v trypsin-0.02% v/v EDTA) and mechanically and plated in tissue culture grade dishes. At this stage, cells were cultured in RA-, BMP- and SM-free medium, which was refreshed every 48 h. MAP-2 positive neurons were examined at day 8 (i.e., day 4 post-RA treatment) by immunofluorescence. Briefly, at day 7, cells were re-cultured in 24 well-plates with cover slips at a final concentration of 5×10^4 cells/well. On day 8, cells were washed with PBS, fixed with PFA 4% for 15 min, permeabilized with 0.5% Triton Tx, blocked with 10% FCS, 0.1% BSA and 0.05% Tween for 30 min, and stained with MAP2 rabbit mAb (1:100, D5G1, Cell Signaling) for 1 hr. The second antibody step was performed by labeling with Alexa Fluor® 488-conjugated IgG antibody to rabbit for 1 h (1:1000; Molecular Probes USA).
Next, the effect of the small molecules on neurogenesis in a P19 differentiation model was measured. […] Neuronal differentiation is marked by the expression of the neuronal marker MAP-2, while the addition of BMP-2 reduces the levels of this marker. Addition of the murine anti-BMP-2/4 monoclonal antibody reverses the effect of BMP-2 and induces acquisition of neuronal phenotype. Thus, the effect of SM1, SM7 and SM9 on the expression of the neuronal marker MAP-2 in P19 cells was examined in the presence of RA and BMP-2. Three concentrations of the molecules were tested: 0.625 μM, 1.25 μM and 2.5 μM.

[3] = system: RR-EAE mice; assay: RR-EAE model in SJL mice, clinical score; assay type: in vivo; conditions: for EAE clinical score: 10 mg/kg/day i.p.
Protocol: RR-EAE was induced in SJL female mice (6-8 week old) by subcutaneous immunization (day 0) with 100 μg/mouse proteolipid protein peptide (PLP139-151, synthesized by Sigma-Aldrich) in 0.1 ml PBS. The peptide was emulsified in an equal volume of Complete Freund's Adjuvant (CFA, from DIFCO) containing 500 μg Mycobacterium tuberculosis H37RA (MT, from DIFCO). The mice also received an intraperitoneal injection of 300 ng pertussis toxin (PTX, from Sigma-Aldrich) in 0.2 ml PBS. A second injection of PTX (300 ng/mouse) was given 48 h later.
Mice were monitored for symptoms of RR-EAE and were scored as follows: “0” for no disease; “1”, tail paralysis; “2”, hind limb weakness; “3”, hind limb paralysis; “4”, hind limb and forelimb weakness/paralysis; “5”, moribund.
The effect of the small molecule inhibitors that were identified in Example 1 above was further tested in vivo using the experimental autoimmune encephalomyelitis (EAE) model in SJL mice. EAE serves as a model for Relapsing/Remitting multiple sclerosis (MS). EAE was induced as described in the experimental procedures section. SMs 1-9 or vehicle alone (5% DMSO in PBS) were daily administered by intraperitoneal injections of 250 μg/mouse (10 mg/kg/day), starting from day 9 post immunization, for the next 30 days. The animals were monitored until day 45 post-induction for symptoms of EAE and scored as follows: 0=no disease, 1=tail paralysis, 2=hind limb weakness, 3=hind limb paralysis, 4=hind limb plus forelimb paralysis, and 5=moribund.
Experiments were repeated with the 4 above-mentioned molecules SM1, SM6, SM7 & SM9. The experiment was conducted under similar conditions as the previous one, except that two dosages of the molecules were administered: a dose of 10 mg/kg and dose of 20 mg/kg, namely 250 μg/mouse and 500 μg/mouse on days 9-38 (see FIG. 4).

[4] = first experiment, 10 mg/kg/day i.p. from day 9 for 30 days, vs. vehicle
[5] = second experiment, 10 and 20 mg/kg, vs. vehicle
[6] = second experiment, high dosage 20 mg/kg, days 9-38, vs. vehicle
[7] = second experiment, low dosage 10 mg/kg, days 9-38, vs. vehicle
[8] = first experiment, day 21 post immunization (vehicle 1.1±0.3)

| SMILES | effect on ALP production induced by BMP-4 compared with BMP-2 [1] | MAP-2+ cells ([2]; RA + rhBMP-2 + SM 2.5 μM) | effect on neuronal phenotype (number of MAP-2+ cells) vs. RA+BMP-2 [2] | effect on EAE clinical score [3, 4] | EAE clinical score ([3]; first experiment, day 19 post immunization (vehicle 1.1±0.3)) | EAE clinical score ([3]; first experiment, day 27) | number of mice with moderate-severe EAE (clinical score at least 2) [3, 5] | effect on EAE clinical score [3, 6] | effect on EAE clinical score [3, 7] | effect on EAE clinical score ([3]; second experiment, 10 and 20 mg/kg, days 9-38) | number of mice with a more severe EAE ([3]; second experiment, during the second relapse (vehicle 5-6 mice)) | number of mice with a more severe EAE ([3]; second experiment, during the third relapse (vehicle 8-9 mice)) | inhibition at 2.5 µM [1] [%] | MAP-2+ cells ([2]; RA + rhBMP-2 + SM 1.25 μM) [%] | EAE clinical score [3, 8] | mice died by the end of the experiment ([3]; second experiment, high dose group 20 mg/kg, day 48) | mice died by the end of the experiment ([3]; second experiment, low dose group 10 mg/kg, day 48, n=14) [mice] | MAP-2+ cells ([2]; RA + rhBMP-2 + SM 0.625 μM (low concentration)) |
| --- | --- | --- | --- | --- | --- | --- | --- | --- | --- | --- | --- | --- | --- | --- | --- | --- | --- | --- |
| COC(=O)c1sccc1N/N=C(\C#N)S(=O)(=O)c1cccs1 [SM1, Methyl 3-[(2E)-2-[cyano(thiophen-2-ylsulfonyl)methylidene]hydrazinyl]thiophene-2-carboxylate] | same effect | 62.2±3.9% | reversed the effect of BMP-2; also recorded: induced neuronal phenotype at all examined concentrations | beneficial effect | 0.5±0.2 | 0.3±0.3 | beneficial effect | trend for amelioration | significant beneficial effect | – | – | – | – | – | – | – | – | – |
| O=C(Nc1cccc(C(F)(F)F)c1)c1ccc([N+](=O)[O-])o1 [SM6, N2-[3-(trifluoromethyl)phenyl)-5-nitro-2-furamide] | same effect | – | – | did not show any beneficial effect | – | – | reduced | – | – | milder and not significant | 2-3 mice | 5-7 mice | – | – | – | – | – | – |
| N#Cc1c(O)nsc1Nc1ccccc1C(F)(F)F [SM7, 3-hydroxy-5-[2-(trifluoromethyl)aniline]isothiazole-4-carbonitrile] | inhibit BMP-2 slightly more than BMP-4 | No significant effect | reversed the effect of BMP-2; also recorded: induced neuronal phenotype at both the low and the mild concentrations | beneficial effect | – | – | – | – | – | – | – | – | 29.8 | 76.1±3.1 | 0.6±0.1 | all of the mice died | 8 | – |
| CS(=O)(=O)c1noc(-c2ccc(Cl)cc2)c1C#N [SM9, 5-(4-chlorophenyl)-3-methylsulfonyl-1,2-oxazole-4-carbonitrile] | inhibit BMP-2 slightly more than BMP-4 | 80.6±10.0% | reversed the effect of BMP-2 | beneficial effect | – | – | beneficial effect | ameliorated EAE | ameliorated EAE | – | – | – | 18.9 | 76.4±12.6 | 0.8±0.3 | – | – | not effective |

Source: US11779565B2, “Small organic molecules for use in the treatment of neuroinflammatory disorders” (THE MEDICAL RESEARCH, INFRASTRUCTURE AND HEALTH SERVICES …, priority 2017, dated 2023)
